Test results from patent US8518869B2, “Pharmaceutical combined preparation containing a therapeutic protein” (Austria Wirtschaftsservice Gesellschaft m.b.H., priority 2004, dated 2013).

Key:
[1] = Source text: It is understood that often arrangements must be made also for the storage of the preparation according to the invention so that said preparation will remain stable over an extended period of time. […] Hereby, it is possible to store the low-molecular thiol compound and the nitrosated protein of the preparation according to the invention both in combined and in separate form.
[2] = system: collagen-induced platelet aggregation; experiment: collagen-induced platelet aggregation in human plasma rich in thrombocytes (aggregometer, method by Born); format: cell-based; conditions: 300 μmol/L, ~1 μg collagen/mL TRP
Description: The platelet aggregation was performed with human plasma rich in thrombocytes (TRP) in a Dual Kanal Chronolog Aggregometer basically according to the method by Born (1969). At the onset of each experiment, the exact dose of collagen was determined for the aggregation induced by collagen (˜1 μg collagen/mL TRP) (95-100% inhibition of the collagen-induced aggregation by 300 μmol/L of acetylsalicylic acid). […] After another minute, aggregation was induced with collagen. Control experiments with collagen alone were carried out after every second to third measurement. […] In experiments with different thiol- and non-thiol-containing substances (N-acetyl-L-cysteine, ascorbic acid, DL-homocysteine, taurine, L-cysteine), pre-incubation was effected primarily with those substances, in analogy to the trials using reduced glutathione.

Compound | pH-value at which stability in solution is greatest [1] | inhibition at 300 µM [2] [%]
N[C@@H](CS)C(=O)O [L-cysteine] | < 7 | –
CC(=O)Oc1ccccc1C(=O)O [acetylsalicylic acid] | – | 95 to 100
haemoglobin | 6 and 7 | –
